The source of these data is patent US20110237658A1, “COMPOUND AND METHOD FOR THE TREATMENT OF PAIN” (KRISHANI BIOSCIENCES (P) LTD, priority 2010, published 2011).

The assay deals with spinal nerve ligation model for neuropathic pain in rats. The assay can be described thus: Spinal nerve ligation (Chung) model of neuropathic pain, Von Frey test. The assay is classed as in vivo. The following applies: 150 mg/kg IP once daily from study day 14 to 21; 2 hours post-treatment on study days 14 and 21; male SD rats. From the text:
Experimental animals were male SD rats with a starting weight of 230-250 grams. Total number of animals were n=90 for surgery and n=60 after selection. The animals were caged in groups of 3 in a temperature and humidity controlled area. They were maintained on a 12 hr light/dark cycle and had ad libitum access to food and water.
Neuropathic pain inducement was done by following principles of Chung induced model. The SD rats were anesthetized using ketamine/xylazine sodium. The rats were shaved and placed in prone position for surgery. The L5-L6 spinal nerves were surgically litigated. The rats were returned to their cages for recuperation and recovery under comfortable warm conditions using heat lamps.
After seven days of surgery a pre selection was performed. Animals that indicate signs of post operative pain were to be selected to proceed. Pain is detected by observing when one or more of the criteria are met as follows. Licking of the operated paw, accompanied by gentle biting or pulling on the nails with the mouth; placing the leg in the air; bearing weight on the side contra-lateral to the nerve injury; deformities of the hind paw and abnormal posture and walking; weakness of the left hind paw. […] However, the animal must be able to move its leg to ensure that the L4 spinal nerve is intact. If the animal cannot move its leg, it was excluded from the study. […]

Consider `CC(OC(=O)CCCC[C@@H]1CCSS1)OC(=O)NC(C)C(C)COC(=O)c1ccccc1` (stereo partly shown) [final compound of formula 1], for which the “efficacy as reflected in the parameters of mechanical allodynia (Von Frey)” value is “effective”.
